Experimental data published in patent publication US10208037B2, “Toll-like receptor-7 and -8 modulatory 1H imidazoquinoline derived compounds” (The University of Kansas, priority 2011, dated 2019).
pEC50: −log10 of the molar value.

What was measured:
[1] = system: outbred CF-1 mice; experiment: Immunization of CF-1 mice with bovine α-lactalbumin, antibody ELISA; format: in vivo; conditions: relative to α-lactalbumin alone; boost Day 14, bled Day 21
Experimental: FIGS. 10A-10D are graphs illustrating immunoglobulin profiles in outbred CF-1 mice immunized on Day 0 with 50 μg/animal of α-lactalbumin, or α-lactalbumin covalently coupled with 5 equivalents of 8, or α-lactalbumin mixed with 5 equivalents of 7d. Animals (5 per cohort) were boosted once on Day 14 exactly as mentioned above, and bled on Day 21. α-lactalbumin-specific immunoglobulin levels were quantified by standard antibody-capture ELISA, performed in liquid handler-assisted 384-well format.
FIG. 11 is a graph illustrating affinity IgG ELISA showing antibody titer as a function of chaotrope (NaSCN) concentration. IgG titers on the ordinate axis were calculated from absorbance values at 0.25 (which corresponds to […] above that of naïve controls).
All experiments were performed in accordance with animal care protocols approved by the University of Kansas IACUC Committee. […]
A precision 2000 liquid handler (Bio-Tek, Winooski, Vt.) was used for all serial dilution and reagent addition steps, and a Bio-Tek ELx405 384-well plate washer was employed for plate washes; 100 mM phosphate-buffered saline (PBS) pH 7.4, containing 0.1% Tween-20 was used as wash buffer. […] Plates were then read at 450 nm using a SpectraMax M4 device (Molecular Devices, Sunnyvale, Calif.). […]

[2] = system: human PBMCs; experiment: Immunoassays for IFN-α, IFN-γ, IL-12 and IL-18 in human PBMCs; format: cell-based
Experimental: Fresh human peripheral blood mononuclear cells (PBMC) were isolated from human blood obtained by venipuncture with informed consent and as per institutional guidelines on Ficoll-Hypaque gradients as described elsewhere.^53 Aliquots of PBMCs (10^5 cells in 100 µL/well) were stimulated for 12 h with graded concentrations of test compounds. Supernatants were isolated by centrifugation, diluted 1:20, and were assayed in triplicates using a high-sensitivity analyte-specific ELISA kits (PBL Interferon Source, Piscataway, N.J. and R&D Systems, Inc., Minneapolis, Minn.).

[3] = Aqueous solubility; format: physicochemical
[4] = molecular target: T1, TLR7 (Homo sapiens, UniProt Q9NYK1); experiment: TLR7 reporter gene assay (NF-κB induction, HEK-Blue-7 cells), agonism; format: cell-based
T1 construct: expressed in transfected cells; host or cells: HEK293 (HEK-Blue-7 cells)
T1 sequence (Q9NYK1 27-1049): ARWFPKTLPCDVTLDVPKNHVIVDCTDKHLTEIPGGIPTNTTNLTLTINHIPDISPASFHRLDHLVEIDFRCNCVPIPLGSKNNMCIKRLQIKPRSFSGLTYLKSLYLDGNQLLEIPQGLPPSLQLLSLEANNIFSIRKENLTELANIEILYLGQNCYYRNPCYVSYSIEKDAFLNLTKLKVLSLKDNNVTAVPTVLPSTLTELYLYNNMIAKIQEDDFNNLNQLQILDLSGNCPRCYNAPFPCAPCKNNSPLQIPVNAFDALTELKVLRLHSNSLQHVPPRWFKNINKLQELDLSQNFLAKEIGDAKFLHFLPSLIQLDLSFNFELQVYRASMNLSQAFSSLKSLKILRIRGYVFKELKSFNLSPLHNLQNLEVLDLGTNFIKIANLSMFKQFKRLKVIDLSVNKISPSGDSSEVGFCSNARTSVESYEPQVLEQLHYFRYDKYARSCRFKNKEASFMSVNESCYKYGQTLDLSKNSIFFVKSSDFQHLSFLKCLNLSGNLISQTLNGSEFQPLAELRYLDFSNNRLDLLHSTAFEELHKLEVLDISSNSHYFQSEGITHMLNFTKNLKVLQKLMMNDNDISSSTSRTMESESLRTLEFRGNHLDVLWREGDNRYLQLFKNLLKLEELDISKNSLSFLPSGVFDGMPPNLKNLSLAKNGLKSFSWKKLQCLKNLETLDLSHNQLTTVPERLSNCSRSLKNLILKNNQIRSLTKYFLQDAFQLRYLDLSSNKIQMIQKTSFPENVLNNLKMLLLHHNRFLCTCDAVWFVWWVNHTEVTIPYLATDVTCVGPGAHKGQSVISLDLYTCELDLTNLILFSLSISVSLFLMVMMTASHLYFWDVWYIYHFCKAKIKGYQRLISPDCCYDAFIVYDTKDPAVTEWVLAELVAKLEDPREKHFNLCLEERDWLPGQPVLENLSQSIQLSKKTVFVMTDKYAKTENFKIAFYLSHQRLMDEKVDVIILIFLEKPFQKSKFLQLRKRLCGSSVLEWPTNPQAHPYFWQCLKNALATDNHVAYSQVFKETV
Description: (§1) NF-κB induction: The induction of NF-κB was quantified using HEK-Blue-7 cells and HEK-Blue-8 cells as previously described by us.^8,24 HEK293 cells were stably transfected with human TLR7 (or human TLR8), MD2, and secreted alkaline phosphatase (sAP), and were maintained in HEK-Blue™ Selection medium containing zeocin and normocin. Stable expression of secreted alkaline phosphatase (sAP) under control of NF-κB/AP-1 promoters is inducible by the TLR7 (or TLR8) agonists, and extracellular sAP in the supernatant is proportional to NF-κB induction. HEK-Blue cells were incubated at a density of […] in a volume of 80 μL/well, in 384-well, flat-bottomed, cell culture-treated microtiter plates until confluency was achieved, and subsequently graded concentrations of stimuli. sAP was assayed spectrophotometrically using an alkaline phosphatase-specific chromogen (present in HEK-detection medium as supplied by the vendor) at 620 nm.
(§2) The induction of NF-κB was quantified using HEK-Blue-3, HEK-Blue-7 and HEK-Blue-8 cells as previously described by us.^8,24,51 HEK293 cells were stably transfected with human TLR3 (or human TLR7 or human TLR8), MD2, and secreted alkaline phosphatase (sAP), and were maintained in HEK-Blue™ Selection medium containing zeocin and normocin. Stable expression of secreted alkaline phosphatase (sAP) under control of NF-κB/AP-1 promoters is inducible by the TLR3 (or TLR7 or TLR8) agonists, and extracellular sAP in the supernatant is proportional to NF-κB induction. HEK-Blue cells were incubated at a density of ˜10^5 cells/ml in a volume of 80 μl/well, in 384-well, flat-bottomed, cell culture-treated microtiter plates until confluency was achieved, and subsequently graded concentrations of stimuli. sAP was assayed spectrophotometrically using an alkaline phosphatase-specific chromogen (present in HEK-detection medium as supplied by the vendor) at 620 nm.

[5] = molecular target: T2, TLR8 (Homo sapiens, UniProt Q9NR97); experiment: TLR8 reporter gene assay (NF-κB induction, HEK-Blue-8 cells), agonism; format: cell-based
T2 construct: expressed in transfected cells; host or cells: HEK293 (HEK-Blue-8 cells)
T2 sequence (Q9NR97 27-1041): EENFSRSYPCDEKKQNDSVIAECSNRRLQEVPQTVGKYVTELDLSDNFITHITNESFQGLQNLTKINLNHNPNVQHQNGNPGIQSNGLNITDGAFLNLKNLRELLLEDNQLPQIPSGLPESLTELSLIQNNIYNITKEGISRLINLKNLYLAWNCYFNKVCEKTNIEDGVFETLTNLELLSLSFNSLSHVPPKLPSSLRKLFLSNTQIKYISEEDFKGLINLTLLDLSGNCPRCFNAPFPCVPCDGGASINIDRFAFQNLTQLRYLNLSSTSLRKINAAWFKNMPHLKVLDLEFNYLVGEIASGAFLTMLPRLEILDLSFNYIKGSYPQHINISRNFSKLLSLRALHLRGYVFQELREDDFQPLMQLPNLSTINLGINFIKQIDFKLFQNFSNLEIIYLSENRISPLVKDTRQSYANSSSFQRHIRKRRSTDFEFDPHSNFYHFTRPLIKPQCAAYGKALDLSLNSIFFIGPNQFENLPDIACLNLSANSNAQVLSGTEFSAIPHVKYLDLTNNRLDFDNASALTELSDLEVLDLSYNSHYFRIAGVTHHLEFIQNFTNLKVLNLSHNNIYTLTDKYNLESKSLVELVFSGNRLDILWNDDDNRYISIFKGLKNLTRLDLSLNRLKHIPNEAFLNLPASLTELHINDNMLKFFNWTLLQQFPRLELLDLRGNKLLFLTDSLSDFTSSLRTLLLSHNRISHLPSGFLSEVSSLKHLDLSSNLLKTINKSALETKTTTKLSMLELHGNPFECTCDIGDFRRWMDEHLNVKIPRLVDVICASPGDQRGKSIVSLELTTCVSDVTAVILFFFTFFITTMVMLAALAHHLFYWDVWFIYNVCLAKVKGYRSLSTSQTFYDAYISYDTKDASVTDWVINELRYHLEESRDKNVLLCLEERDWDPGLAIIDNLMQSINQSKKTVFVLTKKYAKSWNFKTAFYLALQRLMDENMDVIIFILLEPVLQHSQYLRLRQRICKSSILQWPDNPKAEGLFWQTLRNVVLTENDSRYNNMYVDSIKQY
Description: as §1, §2

[6] = system: human PBMCs; experiment: Proinflammatory cytokine induction in human PBMCs; format: cell-based
Experimental: (§3) Aliquots (10^6 cells in 100 μL) of hPBMCs isolated from blood obtained from healthy human donors after informed consent by conventional Ficoll-Hypaque gradient centrifugation were stimulated for 12 h with graded concentrations of test compounds. The supernatant was isolated by centrifugation, diluted 1:20, and cytokines and chemokines were assayed in triplicate using analyte-specific cytokine/chemokine bead array assays as reported by us previously.^74

[7] = system: rabbits; experiment: Rabbit immunization model using bovine α-lactalbumin as model subunit vaccine; conditions: in vivo
Description: FIG. 18 illustrates ratios of Immune-1/pre-immune (after primary vaccination) and Immune-2/pre-immune (after Boost-1) anti-α-lactalbumin IgG titers in rabbits. FIGS. 19A and 19B are graphs illustrating TLR7 and TLR8 agonistic activities of the imidazoquinoline dimers in human TLR-specific reporter gene assays.
FIG. 27 illustrates ratios of immune-1/pre-immune (after primary vaccination) and Immune-2/pre-immune (after Boost-1) anti-α-lactalbumin IgG titers in rabbits using the hybrids as adjuvants. Also shown are the IMDQ (7d) and PAM2CS, as well as IMDQ (7d)+PAM2CS mixture controls.

[8] = system: human peripheral blood mononuclear cells; experiment: IFN-α induction in human PBMCs (ELISA); format: cell-based; conditions: hPBMC, 12 h
Experimental: FIG. 21 is a graph illustrating IFN-α induction by select dimers in human peripheral blood mononuclear cells. IFN-α was assayed by analyte specific ELISA after incubation of hPBMCs with graded concentrations of the test compound for 12 h.
as §3, with “IFN-α was” for “cytokines and chemokines were”, “a high-sensitivity human IFN-α-specific ELISA kit (PBL Interferon Source, Piscataway, N.J.).” for “analyte-specific cytokine/chemokine bead array assays as reported by us previously.^74”

Row | Aqueous solubility (in words) [3] | TLR8-agonistic activity (in words) [5] | pEC50 ([4]; Table 1, ND = not detected, read-out: TLR7 Agonism) | pEC50 ([5]; Table 1, ND = not detected) | SMILES | α-lactalbumin-specific antibody titers [1] | Th1 bias (induction of IFN-α, IFN-γ, IL-12, IL-18) [2] | TLR7-agonistic activity (in words) [4] | IFN-γ induction (in words) [2] | Proinflammatory cytokine induction (in words) [6] | Adjuvantic activity, anti-α-lactalbumin IgG titers in rabbits [7] | IFN-α induction (in words) [8]
1 | excellent |  |  |  | CCCCc1nc2c(N)nc3ccccc3c2n1Cc1ccc(CN)cc1 [Compound 7d, 1-(4-(Aminomethyl)benzyl)-2-butyl-1H-imidazo[4,5-c]quinolin-4-amine] | dramatic enhancements in antibody titers | prominent Th1 bias |  |  |  |  | 
2 |  | loss of TLR8-stimulatory activity |  |  | CCCCc1nc2c(N)nc3ccccc3c2n1Cc1ccc(CNC(=O)Cn2cc(CN(CCN(CCN(Cc3cn(CC(=O)NCc4ccc(Cn5c(CCCC)nc6c(N)nc7ccccc7c65)cc4)nn3)Cc3cn(CC(=O)NCc4ccc(Cn5c(CCCC)nc6c(N)nc7ccccc7c65)cc4)nn3)CCN(Cc3cn(CC(=O)NCc4ccc(Cn5c(CCCC)nc6c(N)nc7ccccc7c65)cc4)nn3)Cc3cn(CC(=O)NCc4ccc(Cn5c(CCCC)nc6c(N)nc7ccccc7c65)cc4)nn3)Cc3cn(CC(=O)NCc4ccc(Cn5c(CCCC)nc6c(N)nc7ccccc7c65)cc4)nn3)nn2)cc1 [Compound 43] |  |  | retaining in large measure the TLR7-agonistic activity | selective and complete loss of TLR8-associated IFN-γ | absence of proinflammatory cytokine induction | better than 7d | 
3 |  | displayed both TLR7 and TLR8 agonism | 6.77 | 5.32 | CCCCc1nc2c(N)nc3ccccc3c2n1Cc1ccc(CNC(=O)CCCCCCCCCCC(=O)NCc2ccc(Cn3c(CCCC)nc4c(N)nc5ccccc5c43)cc2)cc1 [Compound 52c, N^1,N^12-bis(4-((4-amino-2-butyl-1H-imidazo[4,5-c]quinolin-1-yl)methyl)benzyl)dodecane Diamide] |  |  |  |  |  |  | most potent
